# Results: patent US20100190846A1, “MICROBICIDAL AGENT AND MICROBICIDAL COMPOSITION” (priority 2006, published 2010)
# Experiments:
# Assay in all cases: Agar dilution method microbicidal test; for Growth on agar plate: key: +: grew; −: did not grow
# Format in all cases: cell-based
# Bacillus cereus = tested on: Bacillus cereus; for Growth on agar plate: key: +: grew; −: did not grow
# Outline: (§1)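 Compound stocks in DMSO mixed into BHI agar → plates at 4.0 to 0.25 mg/mL final; MHB suspensions (turbidity 1, 10^8/mL) diluted 100-fold, 10 μL spotted; 37° C, 18 h; MIC = lowest growth-inhibiting conc.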
# [1] = tested on: Bacillus subtilis ATCC6633; details: Bacillus subtilis ATCC 6633; for Growth on agar plate: key: +: grew; −: did not grow
# Outline: as §1
# Candida sp. = tested on: Candida sp. For Growth on agar plate: key: +: grew; −: did not grow.
# Outline: as §1
# Salmonella sp. = tested on: Salmonella sp. For Growth on agar plate: key: +: grew; −: did not grow.
# Outline: as §1
# Staphylococcus aureus = tested on: Staphylococcus aureus; for Growth on agar plate: key: +: grew; −: did not grow
# Outline: as §1
# Streptococcus pneumoniae = tested on: Streptococcus pneumoniae; for Growth on agar plate: key: +: grew; −: did not grow
# Outline: as §1
# Vibrio parahaemolyticus = tested on: Vibrio parahaemolyticus; for Growth on agar plate: key: +: grew; −: did not grow
# Outline: as §1
substance,measurement,setting,value
catechin [reference compound],Growth on agar plate,Bacillus cereus; 0.25 mg/mL,+
same,Growth on agar plate,Bacillus cereus; 0.5 mg/mL,+
same,Growth on agar plate,Bacillus cereus; 1.0 mg/mL,−
same,Growth on agar plate,Bacillus cereus; 2.0 mg/mL,−
same,Growth on agar plate,Bacillus cereus; 3.0 mg/mL,−
same,Growth on agar plate,Bacillus cereus; 4.0 mg/mL,−
same,MIC,"Bacillus cereus; BHI agar, 37° C., 18 hours",1000 µg/mL
same,Growth on agar plate,[1]; 0.25 mg/mL,+
same,Growth on agar plate,[1]; 0.5 mg/mL,+
same,Growth on agar plate,[1]; 1.0 mg/mL,+
same,Growth on agar plate,[1]; 2.0 mg/mL,+
same,Growth on agar plate,[1]; 3.0 mg/mL,−
same,Growth on agar plate,[1]; 4.0 mg/mL,−
same,MIC,"[1]; BHI agar, 37° C., 18 hours",3000 µg/mL
same,Growth on agar plate,Candida sp.; 0.25 mg/mL,+
same,Growth on agar plate,Candida sp.; 0.5 mg/mL,+
same,Growth on agar plate,Candida sp.; 1.0 mg/mL,−
same,Growth on agar plate,Candida sp.; 2.0 mg/mL,−
same,Growth on agar plate,Candida sp.; 3.0 mg/mL,−
same,Growth on agar plate,Candida sp.; 4.0 mg/mL,−
same,MIC,"Candida sp.; BHI agar, 37° C., 18 hours",1000 µg/mL
same,Growth on agar plate,Salmonella sp.; 0.25 mg/mL,+
same,Growth on agar plate,Salmonella sp.; 0.5 mg/mL,+
same,Growth on agar plate,Salmonella sp.; 1.0 mg/mL,+
same,Growth on agar plate,Salmonella sp.; 2.0 mg/mL,−
same,Growth on agar plate,Salmonella sp.; 3.0 mg/mL,−
same,Growth on agar plate,Salmonella sp.; 4.0 mg/mL,−
same,MIC,"Salmonella sp.; BHI agar, 37° C., 18 hours",2000 µg/mL
same,Growth on agar plate,Staphylococcus aureus; 0.25 mg/mL,+
same,Growth on agar plate,Staphylococcus aureus; 0.5 mg/mL,+
same,Growth on agar plate,Staphylococcus aureus; 1.0 mg/mL,−
same,Growth on agar plate,Staphylococcus aureus; 2.0 mg/mL,−
same,Growth on agar plate,Staphylococcus aureus; 3.0 mg/mL,−
same,Growth on agar plate,Staphylococcus aureus; 4.0 mg/mL,−
same,MIC,"Staphylococcus aureus; BHI agar, 37° C., 18 hours",1000 µg/mL
same,Growth on agar plate,Streptococcus pneumoniae; 0.25 mg/mL,+
same,Growth on agar plate,Streptococcus pneumoniae; 0.5 mg/mL,+
same,Growth on agar plate,Streptococcus pneumoniae; 1.0 mg/mL,−
same,Growth on agar plate,Streptococcus pneumoniae; 2.0 mg/mL,−
same,Growth on agar plate,Streptococcus pneumoniae; 3.0 mg/mL,−
same,Growth on agar plate,Streptococcus pneumoniae; 4.0 mg/mL,−
same,MIC,"Streptococcus pneumoniae; BHI agar, 37° C., 18 hours",1000 µg/mL
same,Growth on agar plate,Vibrio parahaemolyticus; 0.25 mg/mL,+
same,Growth on agar plate,Vibrio parahaemolyticus; 0.5 mg/mL,−
same,Growth on agar plate,Vibrio parahaemolyticus; 1.0 mg/mL,−
same,Growth on agar plate,Vibrio parahaemolyticus; 2.0 mg/mL,−
same,Growth on agar plate,Vibrio parahaemolyticus; 3.0 mg/mL,−
same,Growth on agar plate,Vibrio parahaemolyticus; 4.0 mg/mL,−
same,MIC,"Vibrio parahaemolyticus; BHI agar, 37° C., 18 hours",500 µg/mL
